Experimental data reported in patent US10780074B2, “Compounds and uses thereof” (Sunovion Pharmaceuticals Inc., priority 2017, dated 2020).
Where a name gives a salt, the structure may show the parent alone.

How the values were obtained:
MES-induced seizures = experiment: Mouse Maximum Electroshock Assay (MES); assay type: in vivo; settings: male CF-1 mice, fewer than 4 animals tested, given as N/F
Excerpt: Mouse Maximum Electroshock Assay (MES)
Mouse Maximum Electroshock Assay (MES) is a model for generalized tonic-clonic seizures and provides an indication of a compound's ability to prevent seizure spread when all neuronal circuits in the brain are maximally active. These seizures are highly reproducible and are electrophysiologically consistent with human seizures. For all MES tests, 60 Hz of alternating current (50 mA in mice and 150 mA in rats) was delivered for 0.2 sec by corneal electrodes which had been primed with an electrolyte solution containing an anesthetic agent (0.5% tetracaine HCl). An animal was considered “protected” from MES-induced seizures upon abolition of the hindlimb tonic extensor component of the seizure. Initial screen for anticonvulsant activity in the MES was performed with N=4 male CF-1 mice/dose/time point. The default doses and time-points were 3 and 30 mg/kg at 0.25 and 0.5 hr following administration. Quantification of the ED50 was conducted at the time of peak effect (TPE). To determine the TPE, groups of N=4 mice were treated with the investigational compound at 0.25, 0.5, 1.0, 2.0 and 4.0 hrs prior to MES testing, or based on time-points from prior studies. […] Quantitation of the ED50 was conducted the same as described for mice above.

[1] = system: behaviors of compound-treated mice; experiment: Neuropharmacological Assay (SmartCube); assay type: in vivo; settings: for minimal effective dose: Mus musculus, ip, 0.25 h, dose having 50% or more total activity in SmartCube, i.p., read-out: MED (minimal effective dose); for AD: ADHD (probability that activity matches class) / AG: analgesic (probability that activity matches class) / AX: anxiolytic (probability that activity matches class) / CE: cognitive enhancer (probability that activity matches class) / DP: anti-depressant (probability that activity matches class) / MS: mood stabilizer (probability that activity matches class) / PS: anti-psychotic (probability that activity matches class) / SD: sedative hypnotic (probability that activity matches class) / UN: uncharacterized CNS activity (probability that activity matches class): i.p. 15 min before behavioral test, most efficacious dose(s) of 3 doses
How it was run: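 Mice dosed i.p. 15 min before testing, with compound in N-methyl-2-pyrrolidone/PEG/propylene glycol, were video-recorded and algorithmically compared with reference-drug behavioral signatures. This gave class-match probabilities (antidepressant, anxiolytic, etc.) at the most efficacious of 3 doses. MED was defined as the dose with ≥50% total activity, usually tested across 0.3–30 mpk.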

| SMILES | Seizure protection at 30 mg/kg (animals protected/animals tested) (MES-induced seizures) | minimal effective dose [1] [mg/kg] | AD: ADHD (probability that activity matches class) [1] | AG: analgesic (probability that activity matches class) [1] | AX: anxiolytic (probability that activity matches class) [1] | CE: cognitive enhancer (probability that activity matches class) [1] | DP: anti-depressant (probability that activity matches class) [1] | MS: mood stabilizer (probability that activity matches class) [1] | PS: anti-psychotic (probability that activity matches class) [1] | SD: sedative hypnotic (probability that activity matches class) [1] | UN: uncharacterized CNS activity (probability that activity matches class) [1] |
| --- | --- | --- | --- | --- | --- | --- | --- | --- | --- | --- | --- |
| CNC[C@H]1OCCc2c(-c3cnccn3)cccc21 (single isomer, unassigned) [Compound 81] | 3/3 animals tested | ≤ 3 | ++ (5% ≤ ++ <25%) | + (LOQ ≤ + <5%) | ++ (5% ≤ ++ <25%) | + (LOQ ≤ + <5%) | ++++ (50% ≤ ++++) | + (LOQ ≤ + <5%) | + (LOQ ≤ + <5%) | + (LOQ ≤ + <5%) | +++ (25% ≤ +++ <50%) |
| CNC[C@@H]1OCCc2c(-c3cnco3)cccc21 (single isomer, unassigned) [Compound 96, hydrochloride salt] | 2/2 animals tested | ≤ 3 | ++ (5% ≤ ++ <25%) | + (LOQ ≤ + <5%) | +++ (25% ≤ +++ <50%) | + (LOQ ≤ + <5%) | ++++ (50% ≤ ++++) | + (LOQ ≤ + <5%) | + (LOQ ≤ + <5%) | ++++ (50% ≤ ++++) | + (LOQ ≤ + <5%) |
